According to patent US20240207350A1, “COMBINATION PREPARATION CONTAINING RESVERATROL” (priority 2021, published 2024):

Test system: Circulating human tumour cells (CTC's) characterised by EpCAM
Test: in vitro vitality reduction of circulating tumour cells from a blood sample of a prostate carcinoma patient
Assay type: cell-based
Details: CTCs of a prostate carcinoma patient
Text: A patient, suffering from a prostate carcinoma, was examined by checking a blood sample. Circulating human tumour cells (CTC's) characterised by EpCAM and additional cell surface markers have been used. The CTC's have been tested with different anti-cancer drugs. […] Furthermore, the positive effects could be shown to be dose dependent.

With `COc1cc(/C=C/C(=O)CC(=O)/C=C/c2ccc(O)c(OC)c2)ccc1O` [Curcumin, curcumin] the “Concentration- and time-dependent specific in vitro vitality reduction (%) in the presence of eutherapeutic concentrations” value (450 mg) was 80%.

With `C[C@H]1[C@H](OC(=O)CCC(=O)O)O[C@@H]2O[C@@]3(C)CC[C@H]4[C@H](C)CC[C@@H]1[C@@]24OO3` [Artesunat] the “Concentration- and time-dependent specific in vitro vitality reduction (%) in the presence of eutherapeutic concentrations” value (eutherapeutic concentration, not specified) was 60%.

For `CCC(=O)C(CC(C)N(C)C)(c1ccccc1)c1ccccc1` (centres unmarked) [Methadone], the “Concentration- and time-dependent specific in vitro vitality reduction (%) in the presence of eutherapeutic concentrations” value (3 × 15 drops) was 30%.

In the case of `C=C1CC[C@H](O)C/C1=C/C=C1\CCC[C@]2(C)[C@@H]([C@H](C)CCCC(C)(C)O)CC[C@@H]12` [Example 25-OH-D3, 25-OH-D3], the “Concentration- and time-dependent specific in vitro vitality reduction (%) in the presence of eutherapeutic concentrations” value (100 ng/ml) is reported as 25% and the “Concentration- and time-dependent specific in vitro vitality reduction (%) in the presence of eutherapeutic concentrations” value (200 ng/ml) is reported as 30%.
